Laboratory results as given in patent publication US10908147B2, “Methods of identifying modulators of olfactory receptors” (priority 2013, dated 2021).
Entries after “also recorded” stand apart in the source; their conditions may differ. Read-outs that look alike come from different tables or passages of the source.

Experiments:
[1] = target: T1, olfactory receptor OR240 (also OR7D4) (Homo sapiens, UniProt Q8NG98); experiment: Calcium imaging of HBO cells transiently transfected with OR7D4; type: cell-based; conditions: HBO cells transfected with OR7D4/OR240 plus chaperone DNA (RTP1S and M3); 30 or 100 micromolar
T1 construct: expressed in transfected cells; host or cells: cultured human taste papillae (HBO) cells, Lipofectamine 2000, transient
T1 sequence (Q8NG98 1-312): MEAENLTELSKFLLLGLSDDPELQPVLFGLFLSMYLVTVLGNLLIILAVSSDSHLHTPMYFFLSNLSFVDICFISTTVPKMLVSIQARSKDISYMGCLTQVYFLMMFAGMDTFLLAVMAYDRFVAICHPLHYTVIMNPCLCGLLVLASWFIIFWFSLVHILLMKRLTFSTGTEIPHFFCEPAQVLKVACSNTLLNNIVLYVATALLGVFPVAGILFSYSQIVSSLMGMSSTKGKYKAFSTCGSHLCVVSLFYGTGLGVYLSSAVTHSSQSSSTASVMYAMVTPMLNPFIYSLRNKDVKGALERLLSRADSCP

[2] = tested on: olfactory receptor ORS6 (also Olfr544); experiment: Calcium imaging of HBO cells transiently transfected with ORS6; type: cell-based, mouse; conditions: HBO cells transfected with ORS6 plus chaperone DNA (RTP1S and M3); 30 or 100 micromolar
[3] = tested on: cultured taste papillae cells obtained from M129 mice; experiment: Calcium imaging of cultured wild mouse (m129) taste papillae cells; type: cell-based; conditions: fura-2 calcium imaging; odorants at optimal concentration 100 uM; wild (m129) mouse taste cell cultures
Method: (§1) Circumvallate and foliate papillae obtained from wild (m129), I7, M71 and Eugenol transgenic mice were isolated according to previously published procedure (Ozdener et al., 2006, cited above). Briefly, mouse taste papillae were removed by injecting the mixture of enzyme (pronase, 1 mg/ml Sigma and elastase 1 mg/ml Sigma) and immediately placed into an isolation solution followed by enzymatic digestion. Digested taste papillae tissue were then gently minced with a surgical razor and seeded on collagen type-1 coated coverslips and incubated at 36° C. in a humidified environment containing 5% CO2.
Changes in intracellular calcium levels in response to stimuli were measured. Cultured human fungiform and mice taste papillae cells were seeded on 15 mm coverslips. Cells were loaded with […] Fura-2 AM (Molecular Probes Inc.) in 10 mg/mL Pluronic® F127 (Molecular Probes Inc.) in modified Ringer solution for 1 hour at 36° C. Individual odors, bitter mixture [phenylthiocarbamide (PTC, 2 mM) and Denatonium (2 mM), Salicin (5 mM)]; and Mix A [cAMP-producing odors in rat biochemical assays (Breer and Boekhoff, 1991, Chem. Senses, 16(1): 19-29, and Restrepo et al., 1993, J. Gen. Physiol., 102:907-924); both of which are incorporated herein by reference] (100 mM): hedione, geraniol, phenylethyl alcohol, citralva, citronellal, and eugenol,]; and Mix B [IP3-producing odors in rat biochemical assays (Breer and Boekhoff, 1991 and Restrepo et al 1993)] (100 mM): lyral, lilial, triethylamine, ethyl vanillin, isovaleric acid, and phenylethyl amine]) was diluted in Ringer, which was prepared with pH adjusted to 7.2 and osmolality adjusted to 300 mmol/kg. A coverslip was placed into a p4 chamber system with the delivery and waste pipes attached to the chamber. […] Following image acquisition, regions of interest (ROIs) on the cells along with a background control region were selected to be measured for fluorescence ratios and intensity values. […] Ratio data for the cells were subsequently analyzed on Excel to determine which cells had responded with a significant change in intracellular calcium. […]

[4] = tested on: cultured taste papillae cells obtained from mOR-M71-GFP ("M71") mice; experiment: Calcium imaging of cultured taste papillae cells from mOR-M71-GFP mice; type: cell-based; conditions: fura-2 calcium imaging; odorants at optimal concentration 100 uM; mOR-M71-GFP mouse taste cell cultures
Method: as §1
(§2) Changes in intracellular calcium levels in response to stimuli were measured. Cultured human fungiform and mice taste papillae cells were seeded on 15 mm coverslips. Cells were loaded with […] Fura-2 AM (Molecular Probes Inc.) in 10 mg/mL Pluronic® F127 (Molecular Probes Inc.) in modified Ringer solution for 1 hour at 36° C. […] Following image acquisition, regions of interest (ROIs) on the cells along with a background control region were selected to be measured for fluorescence ratios and intensity values. […] Ratio data for the cells were subsequently analyzed on Excel to determine which cells had responded with a significant change in intracellular calcium. […]

[5] = tested on: immortalized human fungiform taste papillae (Ulduz) cells; experiment: Odor response of immortalized human fungiform taste papillae (Ulduz) cells; type: cell-based
Method: (§3) Changes in intracellular calcium levels in response to stimuli were measured. Cultured human fungiform and mice taste papillae cells were seeded on 15 mm coverslips. Cells were loaded with […] Fura-2 AM (Molecular Probes Inc.) in 10 mg/mL Pluronic® F127 (Molecular Probes Inc.) in modified Ringer solution for 1 hour at 36° C. Individual odors, bitter mixture [phenylthiocarbamide (PTC, 2 mM) and Denatonium (2 mM), Salicin (5 mM)]; and Mix A [cAMP-producing odors in rat biochemical assays (Breer and Boekhoff, 1991, Chem. Senses, 16(1): 19-29, and Restrepo et al., 1993, J. Gen. Physiol., 102:907-924); both of which are incorporated herein by reference] (100 mM): hedione, geraniol, phenylethyl alcohol, citralva, citronellal, and eugenol,]; and Mix B [IP3-producing odors in rat biochemical assays (Breer and Boekhoff, 1991 and Restrepo et al 1993)] (100 mM): lyral, lilial, triethylamine, ethyl vanillin, isovaleric acid, and phenylethyl amine]) was diluted in Ringer, which was prepared with pH adjusted to 7.2 and osmolality adjusted to 300 mmol/kg. A coverslip was placed into a p4 chamber system with the delivery and waste pipes attached to the chamber. This allowed for a stable and constant flow of liquid in and out of the chamber. The cells were visualized with an inverted florescence microscope using an excitation wavelength of 380 nm. Stimulus selection and delivery, focusing, and image acquisition were done using PTI software. Following image acquisition, regions of interest (ROIs) on the cells along with a background control region were selected to be measured for fluorescence ratios and intensity values. Cultured taste papillae cells were first washed for 1-3 min with Ringer, and then stimuli delivery was initiated. Each stimulus was delivered for 30 sec-1 min followed by an approximately 2 min wash out period with Ringer. Ratio data for the cells were subsequently analyzed on Excel to determine which cells had responded with a significant change in intracellular calcium. After calcium imaging, coverslips were fixed with 4% PFA for 10 min and washed 3× with PBS.
In a similar manner, immortalized human fungiform taste papillae (Ulduz) cells, responded to receptor specific odors, heptaldehyde, acetophenone, methyl cinnamon, eugenol and lyral.

[6] = tested on: cultured fungiform taste papillae (HBO) cells obtained from human tongue; experiment: Calcium imaging of cultured human fungiform taste papillae (HBO) cells; type: cell-based; conditions: fura-2 calcium imaging, odorants at optimal concentration 100 uM
Method: The human fungiform papillae cells were cultured according to published protocols (Ozdener et al., Chem Senses. 2006 March; 31(3): 279-90; Ozdener et al., In Vitro Cellular & Developmental Biology—Animal. September 2011, 47(8): 513-14; each of which is incorporated herein by reference). Briefly, human fungiform taste papillae were removed and immediately placed into an isolation solution [26 mM NaHCO3, 2.5 mM NaH2PO4, 20 mM glucose, 65 mM NaCl, 20 mM KCl, and 1 mM ethylenediaminetetraacetic acid (EDTA)] followed by enzymatic digestion with pronase E and elastase. Digested fungiform papillae were then gently minced with a surgical razor and seeded on collagen type-1 coated coverslips and incubated at 36° C. in a humidified environment containing 5% CO2. The human fungiform taste papillae were cultured in Iscove's Modified Dulbecco's medium containing 10% fetal bovine serum, 1:5 ratio of MCDB 153, and a triple cocktail of antibiotics (100 U/mL/100 μg/mL, penicillin/streptomycin, and 0.5 μg/mL fungizone). Human fungiform taste papillae cells have been maintained in culture for a period of more than 1 year without loss of viability and with retention of the molecular and biochemical properties of acutely isolated taste cells.
as §3

[7] = tested on: cultured taste papillae cells obtained from mOR-EG-GFP ("mEUG") mice; experiment: Calcium imaging of cultured taste papillae cells from mOR-EG-GFP mice; type: cell-based; conditions: fura-2 calcium imaging; odorants at optimal concentration 100 uM; mOR-EG-GFP mouse taste cell cultures
Method: as §1, §2

Row | SMILES | response to stimulus (change in intracellular calcium) [3] | response to receptor specific odor [5] | response to stimulus (change in intracellular calcium [Ca2+]i) [6] | further results
1 | C[C@@]12CCC[C@H]1[C@@H]1CC[C@H]3CC(=O)CC[C@]3(C)[C@H]1CC2 [Androstanone] | – | – | – | calcium response to receptor specific odor [1]: response occurred
2 | O=C(O)CCCCCCCC(=O)O [Nonanedionic acid] | – | – | – | calcium response to receptor specific odor [2]: response occurred
3 | CC(=O)c1ccccc1 [acetophenone] | responded; also recorded: sensitive | respond | sensitive | response to stimulus (change in intracellular calcium) [4]: exhibited a response; also recorded: respond; also recorded: responsive
4 | O=Cc1ccccc1 [benzaldehyde] | responded; also recorded: sensitive | – | – | response to stimulus (change in intracellular calcium) [4]: respond
5 | O=c1ccc2ccccc2o1 [coumarin] | – | – | sensitive | –
6 | C=CCc1ccc(O)c(OC)c1 [eugenol] | sensitive | respond | sensitive | response to stimulus (change in intracellular calcium) [7]: respond; also recorded: responsive
7 | CCCCCCC=O [heptanal] | – | – | sensitive | response to receptor specific odor ([5]; listed as heptaldehyde): respond
8 | CCCCCC(=O)O [hexanoic acid] | – | – | sensitive | –
9 | CC(C)(O)CCCC1=CCC(C=O)CC1 (stereo not shown) [lyral] | – | respond | sensitive | –
10 | COC(=O)/C=C/c1ccccc1 [methyl cinnamon] | – | respond | – | –
